Laboratory results as given in US6900033B2, “Methods and compositions for modulating ACE-2 activity” (Human Genome Sciences, Inc., priority 2001, dated 2005).
Where “and” joins values, the source holds several entries; their conditions need not be identical. Identical values can stand only once. Entries after “also recorded” stand apart in the source; their conditions may differ. Blank lines part the entries; values can stand above or below the compound they belong to. Positions of bridges follow the written chain, without caps; N, C: chain ends.

Columns and labels:
ACE-2 [1] = molecular target: T1, ACE-2 (Homo sapiens, UniProt Q9BYF1); assay: Fluorometric ACE-2 inhibition assay with peptide M-2195 as substrate; format: biochemical; conditions: ACE-2 activity, M-2195 substrate, enzyme pre-incubated 30 minutes with inhibitor, 100 mM TRIS pH 7.4
T1 construct: nucleotides corresponding to the extracellular domain (M1-S740); FLAG; made in house; host or cells: Sf9 insect cells (recombinant baculovirus, transfer vector pA2); purified from conditioned media
Description: Assay mixture was prepared first by pre-incubating (30 minutes, room temperature) the enzyme with the inhibitor (0.45 μg ([…]) ACE-2, 0-0.5 μM inhibitor rage, up to 90 […] volume with 100 mM TRIS pH 7.4, 0.1% Tween-20, 0.4% DMSO) in each well, in triplicate, by dispensing volumes using a repeat pipetter (Rainin) into a 96-well clear-bottom back plate (Costar, 07-200-590). […] Substrate stock (10 μL of 10× concentration) was added to each well to be tested in blocks of three vertically down the plate. The reaction was monitored on a Spectrafluor Plus (Tecan) at an excitation wavelength of 340 nm and an emission wavelength of 400 nm (+/−35 nm) every 30 seconds for a time period of 10 minutes.
ACE-2 cleaves off the C-terminal lysine from the peptide with a concomitant increase in fluorescence signal.
The assays were performed in 96-well clear-bottom black plates (Costar, 07-200-590). In each well, 0.45 μg (5 pmoles) of ACE-2 is added to 90 μL of an assay solution containing 100 mM TRIS at pH 7.4, 0.1% Tween, and 0.4% DMSO. Substrate stock at 10 μL of 10× concentration is added to each well (for example, 10 μL of 1 mM stock for a final 100 μM concentration). The reaction was monitored on a Spectrafluor Plus (Tecan) at an excitation wavelength of 340 nm and an emission wavelength of 400 nm (+/−35 nm) every 30 seconds up to 10 minutes. All samples were measured in triplicate.

ACE-2 [2] = molecular target: T1, ACE-2; conditions: literature (Donoghue 2000; Tipnis 2000); cited from earlier work
[3] = test system: isolated aortic vascular rings; assay: Developed isometric tension of isolated rat aortic vascular rings; conditions: for potentiation of angiotensin II-mediated vasoconstriction: peptide combined with angiotensin II
Description: The effects of graded doses of A1-9 (Fields et al., Peptide Research 4: 95-101 (1991)) or A1-10 (substrate control) alone or in combination (Tallarida, Drug Synergism and Dose-Effect Data Analysis, Chapman and Hall/CRC, New York (2000), Tallarida et al., Life Science 61: PL417-425 (1997)) with angiotensin II were examined on isolated aortic vascular rings developed tension in response to vasoactive substances. Aortas were removed from mature male Sprague-Dawley rats, cleared of connective tissue, and cut into 1 mm rings. Rings were mounted to an isometric force transducer and placed in Krebs-Henseleit solution bubbled with 95% 02/5% C02 at 37° C. Rings were exposed to a 2 g preload, relaxed and then exposed to various concentrations of angiotensin peptides alone or in combination. Following angiotensin peptide dosing, rings were fully constricted with KCl to determine the maximum degree of vasoconstriction.
The maximum tension developed by A1-9 was minimal and always less than that of angiotensin II.

anesthetized rats = conditions: literature (Oparil 1971); cited from earlier work
[4] = test system: awake, free-ranging Sprague-Dawley rats; assay: Arterial pressure in awake, free-ranging Sprague-Dawley rats, intravenous infusion; format: in vivo, rat
Description: To investigate the effects of A1-9 on arterial pressure, A1-9 was administered to awake, free-ranging Sprague-Dawley rats via indwelling intravenous and arterial catheters. Intravenous infusion of A1-9 (1-3 μg/kg/min) in the awake rat produced a dose-dependent tonic increase in mean arterial pressure to a maximum of approximately 30 mmHg (FIG. 2). […] These responses seen with A1-9 were similar in magnitude to those induced by angiotensin II.
To examine any interactions induced by coadministration of A1-9 and angiotensin II, arterial pressure was monitored in the awake rat after they received either A1-9 (1 μg/kg/min) or saline coinfused with angiotensin 11 (1-100 ng/kg/min).

anesthetized dogs = conditions: literature (Oparil 1971); cited from earlier work
isolated rat aorta = conditions: literature (Oparil 1971); cited from earlier work
[5] = intravenous infusion 1-3 μg/kg/min, awake rat

T1 sequence (Q9BYF1 18-740): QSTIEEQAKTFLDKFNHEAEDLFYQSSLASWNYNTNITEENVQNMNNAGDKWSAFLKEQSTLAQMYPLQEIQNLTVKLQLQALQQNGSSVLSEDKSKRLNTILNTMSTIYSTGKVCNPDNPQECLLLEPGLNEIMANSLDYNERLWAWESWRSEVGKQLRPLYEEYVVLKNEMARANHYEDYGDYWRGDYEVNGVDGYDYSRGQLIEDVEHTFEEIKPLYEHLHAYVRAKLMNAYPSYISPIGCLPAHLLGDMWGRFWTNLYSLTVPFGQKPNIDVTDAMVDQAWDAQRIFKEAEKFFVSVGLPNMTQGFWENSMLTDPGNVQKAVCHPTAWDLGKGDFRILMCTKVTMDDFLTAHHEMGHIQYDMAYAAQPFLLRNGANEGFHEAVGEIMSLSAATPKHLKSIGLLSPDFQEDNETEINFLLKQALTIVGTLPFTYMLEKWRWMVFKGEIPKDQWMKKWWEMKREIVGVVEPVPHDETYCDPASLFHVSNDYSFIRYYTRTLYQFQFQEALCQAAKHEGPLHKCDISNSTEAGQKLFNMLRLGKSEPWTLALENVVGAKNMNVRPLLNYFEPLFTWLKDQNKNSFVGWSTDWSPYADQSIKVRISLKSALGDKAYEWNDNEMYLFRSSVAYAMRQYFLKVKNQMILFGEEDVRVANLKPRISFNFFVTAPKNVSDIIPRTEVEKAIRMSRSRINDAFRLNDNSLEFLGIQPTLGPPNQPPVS

Compound: C[C@H](CS)C(=O)N1CCC[C@H]1C(=O)O [captopril]
block of ACE-2 conversion of angiotensin I to angiotensin 1-9 (ACE-2 [2]): not blocked

Compound: angiotensin I (DRVYIHPFHL; Angiotensin-1; UniProt P01019 25-34, looked up) [substrate control; the ACE and ACE-2 substrate]
potentiation of angiotensin II-mediated vasoconstriction [3]: failed to potentiate

Compound: des-Leu^10-angiotensin I (DRVYIHPFH; Angiotensin 1-9; UniProt P01019 25-33, looked up) [A1-9, nonapeptide formed by removal of the C-terminal leucine from angiotensin I]
pressor activity (anesthetized rats): weak pressor activity
effect on the pressor response to angiotensin II ([4]; coinfused with angiotensin II 1-100 ng/kg/min, A1-9 at 1 μg/kg/min): potentiated the pressor response elicted by angiotensin II in an additive fashion
heart rate [4, 5]: decreased in a dose-dependent manner
maximum increase in mean arterial pressure [4, 5]: approximately 30 mmHg
pulse pressure (systolic - diastolic) [4, 5]: elevated
pressor activity (anesthetized dogs): weak pressor activity
Al-9 % Max. Developed Force ([3]; Emax, A1-9 alone, 1-30 nM, mature rat aortic rings, % of KCl maximum, one value per experiment 1-5, listed as Al-9): 3.5% and 0% and 7.5% and 6.4% and 3.2%
potentiation of angiotensin II-mediated vasoconstriction [3]: synergistic or supraadditive potentiation
vasoconstrictor activity of the peptide alone ([3]; rat aortic rings): no effect on vascular tone; also recorded: virtually devoid of activity
factor of increase of the relative potency of angiotensin II beyond simple additive potentiation ([3]; shift of angiotensin II dose-effect curve by A1-9, FIG. 1): 11.6 (95% confidence limits of 3.02-44.7)
vasoconstrictor activity (isolated rat aorta): weak vasoconstrictor

Next, values leading:

Inhibition (ACE-2 [1]): −
Compound: Ac-GSLEMCEALFCVEFAPGEGGG-NH2 (disulfide 6-11 (inferred)) [DX-502]

Inhibition (ACE-2 [1]): −
Compound: Ac-AGVYFCFDWEQDCDEMGTEGGG-NH2 (disulfide 6-13 (inferred)) [DX-528]

Inhibition (ACE-2 [1]): −
Compound: Ac-GSNDYCTVFTGALFCLDFAPEGGG-NH2 (disulfide 6-15 (inferred)) [DX-507]

Inhibition (ACE-2 [1]): −
Compound: Ac-AGEGNCFLIGPWCFEFGTEGGG-NH2 (disulfide 6-13 (inferred)) [DX-504]

Inhibition (ACE-2 [1]): −
Compound: Ac-GSDQNCFAMYCFEFAPGEGGG-NH2 (disulfide 6-11 (inferred)) [DX-503]

Inhibition (ACE-2 [1]): −
Compound: Ac-GDDDDCGWIGFANFHLCLHGDPEGGG-NH2 (disulfide 6-17 (inferred)) [DX-510]

Inhibition (ACE-2 [1]): −
Compound: Ac-AGWVLCFEWEDCDEKGTEGGG-NH2 (disulfide 6-12 (inferred)) [DX-527]
